B1: carbonyl reductase from Lactococcus lactis (LL-CR) (Lactococcus lactis subsp. lactis Il1403) (protein)
chain: MKTLITGENKGIGFALAQNLGHRGYEVLVGARNETRGQEAVEKLKAEGITAKFVKVDLDDLNQLTSLSALTDIDLLINNAGISGNIHSDKGHLDMEKSAFDYSTTDLEETIKTNFLGTHAVIKELLPHSLTENAKIINITVPVSQEYWMPLAYVTSKAAQNAMTFAFGHQFKKDKSKKQIFAVMPGAVATDLNGAKVGDSPFVKSPEETAQMISKFIFDDKNHNAQIINFDGTIYDNYEPGLRNKVIKDVAKNGLKRKFKK

What was measured:
[1] = system: carbonyl reductase from Lactococcus lactis; experiment: CRLL activity assay (decrease of NADPH absorption); substrate table of the isolated carbonyl reductase; assay type: biochemical; conditions: Substrate (20 mM); for spec. Act. (U/mg): activity per protein (0.37, 5.5 or 6.6 mg/mL)
From the text: The construct crll-pkk223-3 as well as crll-his-pkk223-3 were both transformed separately into the E. coli host strain HB101 for expression.

[2] = target: T1, carbonyl reductase from Lactococcus lactis (LL-CR) (Lactococcus lactis, UniProt Q9CJ60); experiment: Oxidation of secondary alcohols to ketones by LL-CR (enantiospecificity); assay type: biochemical
[3] = target: T1, carbonyl reductase from Lactococcus lactis (LL-CR); experiment: Purified CRLL activity in aqueous-organic tunable solvents (OATS); assay type: biochemical
Protocol: As LL-CR requires organic buffers for stability, such as HEPES or triethanolamine, runs were conducted in partially organic systems using a buffer system of 200 mM NH4CHO3 and 50 mM HEPES at pH 7.0.

[4] = target: T1, carbonyl reductase from Lactococcus lactis (LL-CR); experiment: Enzyme characterisation of purified LL-CR (KM, vmax, kcat, pH and T optima); assay type: biochemical
[5] = substrate: CC(=O)c1ccccc1; experiment: as above; assay type: biochemical, Lactococcus lactis; conditions: other: pH 7.0 and 30° C.

Molecule	Activity (U/mL) [1] [U/mL]	spec. Act. (U/mg) [1] [U/mg]	other results
CC(O)CO (centres unmarked) [1,2-propanediol]	0.025	0.06757	
O=C1CCCC2CCCCC12 (centres unmarked) [1-decalone]	5.29	14.3	
O=C1CCc2ccccc21 [1-indanone]		0	
CC(=O)CC(C)=O [2,4-pentane-dione]	90.77	13.75	
CCCCC(C)=O [2-hexanone]	1.28	3.459	
CC1CC(=O)CC(C)(C)C1 (centres unmarked) [3,3,5-trimethyl-CHone]	0.24	0.6486	
CC(=O)C(C)C [3-methyl-2-butanone]	12.06	32.59	
CC(=O)CC(C)C [4-methyl-2-pentanone]	21.7	3.288	
C[C@@H](O)c1ccccc1 [(R)-1-phenyl-1-ethanol]			oxidation of secondary alcohol to the respective ketone [2]: can oxidize
CCCC[C@@H](C)O [(R)-2-hexanol]			oxidation of secondary alcohol to the respective ketone [2]: can oxidize
COC(=O)CC(C)=O [Methyl acetoacetate]	36.7	5.561	
COC(=O)C(=O)c1ccccc1 [Methyl benzoylformate]	3.86	0.5848	
CC(=O)COc1ccccc1 [Phenoxy-2-propanone]	10.61	28.68	
CC(C)=O [acetone]	8.36	22.59	
CC(=O)CCC(C)=O [acetonylacetone]	57.88	8.77	
CC(=O)c1ccccc1 [acetophenone]	53	8.03	
O=Cc1ccccc1 [benzaldehyde]	8.3	1.258	
O=C(O)C(=O)c1ccccc1 [benzoylformate]	0	0	
CCCC=O [butyraldehyde]	12.7	34.32	

Molecule	Activity (U/mL) [1] [U/mL]	spec. Act. (U/mg) [1] [U/mg]	other results
O=C1CCCCC1 [cyclohexanone]	49	7.424	
OCCOCCO [diethyleneglycol]	0.38	1.027	
CCOCCO [ethoxyethanol]	0.0128	0.03459	
CCCC(=O)CC(=O)OCC [ethyl 3-oxohexanoate]	9.64	26.05	
CCOC(=O)CC(C)=O [ethyl acetoacetate]	7.07	19.11	
CCOC(=O)CC(=O)c1ccccc1 [ethyl benzoylacetate]	4.98	13.46	
CCOC(=O)C(=O)c1ccccc1 [ethyl benzoylformate]	11.25	1.705	
CCOC(=O)C(C)=O [ethyl pyruvate]	16.32	2.473	
CCCCCC=O [hexylaldehyde]	45.82	6.942	
CC(=O)CO [hydroxyacetone]	0.77	2.081	
CC(C)O [isopropanol]			specific activity of LL-CR on isopropanol ([3]; regeneration substrate, extends beyond 50% solvent content): 2-4 U/mg protein
CC1(C)COC(=O)C1=O [ketopantolactone]	9.49	25.65	
CCCCCCCC=O [octylaldehyde]	10.93	1.656	
CC(=O)C(C)(C)C [pinacolone]	22.5	3.409	
CCC=O [propionaldehyde]	69	10.45	
CCC(=O)c1ccccc1 [propiophenone]	2.2	0.4	
t-butylcyclohexanone	0	0	
tetralone	3.2	0.4848	
B1			T optimum [4]: 40 °C; pH optimum [4]: 6.5; calculated kcat ([4]; pH 7.0 and 30° C.): 24 s⁻¹; vmax ([4]; pH 7.0 and 30° C.): 80 U/mg pure protein; Km [5]: 0.5 mM; organic solvent content at which enzyme is active ([3]; 200 mM NH4HCO3/50 mM HEPES, pH 7.0, 30° C.): up to 50%; organic solvent content at which stable ([3]; acetonitrile, dioxane, or tetrahydrofuran): below 60%

From patent publication US20060240535A1, “Carbonyl reductase from lactococcus lactis” (GEORGIA TECH RESEARCH CORPORATION, priority 2004, published 2006)
